{
  "source": "patent US4229204A",
  "about": "“Trifluoromethylphenyl isoxazolyl benzoates” (Monsanto Company, priority 1978, dated 1980); note: ranges in brackets are in %",
  "experiment_in_all_cases": "Post-emergent herbicidal test",
  "format_in_all_cases": "in vivo",
  "key": {"Crabgrass": {"test_system": "Crabgrass", "method": "(§1) The post-emergent tests were conducted as follows:\n(§2) The active ingredients are applied in spray form to two or three week old specimens of various plant species. The spray, a solution or wettable powder suspension containing the appropriate rate of active ingredient to give the desired test rate and a surfactant, is applied to the plants."}, "Hemp Sesbania": {"test_system": "Hemp Sesbania", "method": "as §1, §2"}, "Panicum Spp.": {"test_system": "Panicum Spp.", "method": "as §1, §2"}, "Rice": {"test_system": "Rice", "method": "as §1, §2"}, "Sorghum": {"test_system": "Sorghum", "method": "as §1, §2"}, "Soybean": {"test_system": "Soybean", "method": "as §1, §2"}, "Sugarbeet": {"test_system": "Sugarbeet", "method": "as §1, §2"}, "Wheat": {"test_system": "Wheat", "method": "as §1, §2"}, "Wild Buckwheat": {"test_system": "Wild Buckwheat", "method": "as §1, §2"}, "Barnyardgrass": {"test_system": "Barnyardgrass", "method": "as §1, §2\n(§3) The compounds were also tested by utilizing the above procedure on the following plant species: […]"}, "Canada Thistle": {"test_system": "Canada Thistle", "settings": "4 WAT, 11.2 kg/h", "method": "as §1, §2, §3"}, "Cocklebur": {"test_system": "Cocklebur", "method": "as §1, §2, §3"}, "Downy Brome": {"test_system": "Downy Brome", "method": "as §1, §2, §3"}, "Johnsongrass": {"test_system": "Johnsongrass", "settings": "4 WAT, 11.2 kg/h", "method": "as §1, §2, §3"}, "Lambsquarters": {"test_system": "Lambsquarters", "method": "as §1, §2, §3"}, "Morningglory": {"test_system": "Morningglory", "method": "as §1, §2, §3"}, "Quackgrass": {"test_system": "Quackgrass", "settings": "4 WAT, 11.2 kg/h", "method": "as §1, §2, §3"}, "Smartweed": {"test_system": "Smartweed", "method": "as §1, §2, §3"}, "Velvetleaf": {"test_system": "Velvetleaf", "method": "as §1, §2, §3"}, "Yellow Nutsedge": {"test_system": "Yellow Nutsedge", "settings": "4 WAT, 11.2 kg/h", "method": "as §1, §2, §3"}},
  "data": [
    {"smiles": "COC(=O)c1ccccc1-c1cc(-c2cccc(C(F)(F)F)c2)no1", "note": "[Example 3, Methyl 2-[3-[3-(Trifluoromethyl)-Phenyl]-5-Isoxazolyl]Benzoate]", "values": [
      {"measurement": "herbicidal rating", "setting": "Crabgrass; 2 WAT, 1.12 kg/h", "value": "0 (0-24)"},
      {"measurement": "herbicidal rating", "setting": "Crabgrass; 4 WAT, 5.60 kg/h", "value": "0 (0-24)"},
      {"measurement": "herbicidal rating", "setting": "Hemp Sesbania; 2 WAT, 1.12 kg/h", "value": "1 (25-49)"},
      {"measurement": "herbicidal rating", "setting": "Hemp Sesbania; 4 WAT, 5.60 kg/h", "value": "0 (0-24)"},
      {"measurement": "herbicidal rating", "setting": "Panicum Spp.; 2 WAT, 1.12 kg/h", "value": "0 (0-24)"},
      {"measurement": "herbicidal rating", "setting": "Panicum Spp.; 4 WAT, 5.60 kg/h", "value": "0 (0-24)"},
      {"measurement": "herbicidal rating", "setting": "Rice; 2 WAT, 1.12 kg/h", "value": "0 (0-24)"},
      {"measurement": "herbicidal rating", "setting": "Rice; 4 WAT, 5.60 kg/h", "value": "0 (0-24)"},
      {"measurement": "herbicidal rating", "setting": "Sorghum; 2 WAT, 1.12 kg/h", "value": "0 (0-24)"},
      {"measurement": "herbicidal rating", "setting": "Sorghum; 4 WAT, 5.60 kg/h", "value": "0 (0-24)"},
      {"measurement": "herbicidal rating", "setting": "Soybean; 2 WAT, 1.12 kg/h", "value": "1 (25-49)"},
      {"measurement": "herbicidal rating", "setting": "Soybean; 4 WAT, 5.60 kg/h", "value": "1 (25-49)"},
      {"measurement": "herbicidal rating", "setting": "Sugarbeet; 2 WAT, 1.12 kg/h", "value": "0 (0-24)"},
      {"measurement": "herbicidal rating", "setting": "Sugarbeet; 4 WAT, 5.60 kg/h", "value": "1 (25-49)"},
      {"measurement": "herbicidal rating", "setting": "Wheat; 2 WAT, 1.12 kg/h", "value": "1 (25-49)"},
      {"measurement": "herbicidal rating", "setting": "Wheat; 4 WAT, 5.60 kg/h", "value": "0 (0-24)"},
      {"measurement": "herbicidal rating", "setting": "Wild Buckwheat; 2 WAT, 1.12 kg/h", "value": "1 (25-49)"},
      {"measurement": "herbicidal rating", "setting": "Wild Buckwheat; 4 WAT, 5.60 kg/h", "value": "1 (25-49)"},
      {"measurement": "herbicidal rating", "setting": "Barnyardgrass; 2 WAT, 1.12 kg/h", "value": "0 (0-24)"},
      {"measurement": "herbicidal rating", "setting": "Barnyardgrass; 4 WAT, 5.60 kg/h", "value": "0 (0-24)"},
      {"measurement": "herbicidal rating", "setting": "Barnyardgrass; 4 WAT, 11.2 kg/h", "value": "3 (75-99)"},
      {"measurement": "herbicidal rating", "setting": "Canada Thistle", "value": "2 (50-74)"},
      {"measurement": "herbicidal rating", "setting": "Cocklebur; 2 WAT, 1.12 kg/h", "value": "1 (25-49)"},
      {"measurement": "herbicidal rating", "setting": "Cocklebur; 4 WAT, 5.60 kg/h", "value": "1 (25-49)"},
      {"measurement": "herbicidal rating", "setting": "Cocklebur; 4 WAT, 11.2 kg/h", "value": "2 (50-74)"},
      {"measurement": "herbicidal rating", "setting": "Downy Brome; 2 WAT, 1.12 kg/h", "value": "0 (0-24)"},
      {"measurement": "herbicidal rating", "setting": "Downy Brome; 4 WAT, 5.60 kg/h", "value": "0 (0-24)"},
      {"measurement": "herbicidal rating", "setting": "Downy Brome; 4 WAT, 11.2 kg/h", "value": "2 (50-74)"},
      {"measurement": "herbicidal rating", "setting": "Johnsongrass", "value": "2 (50-74)"},
      {"measurement": "herbicidal rating", "setting": "Lambsquarters; 2 WAT, 1.12 kg/h", "value": "1 (25-49)"},
      {"measurement": "herbicidal rating", "setting": "Lambsquarters; 4 WAT, 5.60 kg/h", "value": "1 (25-49)"},
      {"measurement": "herbicidal rating", "setting": "Lambsquarters; 4 WAT, 11.2 kg/h", "value": "4 (100)"},
      {"measurement": "herbicidal rating", "setting": "Morningglory; 2 WAT, 1.12 kg/h", "value": "1 (25-49)"},
      {"measurement": "herbicidal rating", "setting": "Morningglory; 4 WAT, 5.60 kg/h", "value": "1 (25-49)"},
      {"measurement": "herbicidal rating", "setting": "Morningglory; 4 WAT, 11.2 kg/h", "value": "2 (50-74)"},
      {"measurement": "herbicidal rating", "setting": "Quackgrass", "value": "3 (75-99)"},
      {"measurement": "herbicidal rating", "setting": "Smartweed; 2 WAT, 1.12 kg/h", "value": "1 (25-49)"},
      {"measurement": "herbicidal rating", "setting": "Smartweed; 4 WAT, 5.60 kg/h", "value": "1 (25-49)"},
      {"measurement": "herbicidal rating", "setting": "Smartweed; 4 WAT, 11.2 kg/h", "value": "4 (100)"},
      {"measurement": "herbicidal rating", "setting": "Velvetleaf; 2 WAT, 1.12 kg/h", "value": "1 (25-49)"},
      {"measurement": "herbicidal rating", "setting": "Velvetleaf; 4 WAT, 5.60 kg/h", "value": "1 (25-49)"},
      {"measurement": "herbicidal rating", "setting": "Velvetleaf; 4 WAT, 11.2 kg/h", "value": "2 (50-74)"},
      {"measurement": "herbicidal rating", "setting": "Yellow Nutsedge", "value": "0 (0-24)"}
    ]}
  ]
}
